# Results from US20240148821A1, “PHARMACEUTICAL USE OF CYCLIC PEPTIDE COMPOUND” (CHUGAI SEIYAKU KABUSHIKI KAISHA, priority 2021, published 2024).
# Numbered stars: 1 amine (or outer) side, 2 acyl side, 3 side chain; on linkers, the order of the positions; unused ones are H or OH. Bridge positions count the residues as written; N and C are the ends. Square brackets hold non-standard residues; d marks the D form. Peptide text beside a SMILES is read from it. * marks the point of attachment. hPhe(3-Cl-4-CF3) = N[C@@H](CCc1ccc(C(F)(F)F)c(Cl)c1)C(=O)O; hPhe(3-F,4-CF3) = N[C@@H](CCc1ccc(C(F)(F)F)c(F)c1)C(=O)O; NMePhe(4-CF3) = CN[C@@H](Cc1ccc(C(F)(F)F)cc1)C(=O)O; NMePhe(4-Me) = CN[C@@H](Cc1ccc(C)cc1)C(=O)O; NMePhe(4-F) = CN[C@@H](Cc1ccc(F)cc1)C(=O)O; X83 = Cc1ccc(CC[C@H](N[*:1])C(=O)[*:2])cc1; NMedβ3hAla = C[C@H](CC(=O)[*:2])N(C)[*:1]; NMeAla(cPent) = CN[C@@H](CC1CCCC1)C(=O)O; X133 = O=C(C[C@H](N[*:1])C(F)(F)F)[*:2]; Pro(4,4-F2) = O=C(O)[C@@H]1CC(F)(F)CN1; NMe4Pal = CN[C@@H](Cc1ccncc1)C(=O)O; NMeCha = CN[C@@H](CC1CCCCC1)C(=O)O; Hyp = O=C(O)[C@@H]1C[C@@H](O)CN1; NMeChg = CN[C@H](C(=O)O)C1CCCCC1; NMeI = CC[C@H](C)[C@H](NC)C(=O)O; X17 = FC1(F)CN(*)CC(F)(F)C1(F)F; NMeD = CN[C@@H](CC(=O)O)C(=O)O; NMeL = CN[C@@H](CC(C)C)C(=O)O; NMeV = CN[C@H](C(=O)O)C(C)C; d(β3hA) = C[C@@H](N)CC(=O)O; NMeS = CN[C@@H](CO)C(=O)O; Morpholide = C1CN(*)CCO1; NMeA = CN[C@@H](C)C(=O)O; Piperidide = C1CCN(*)CC1; Pyrrolidide = C1CCN(*)C1; Ac5c = NC1(C(=O)O)CCCC1; Aze = O=C(O)[C@@H]1CCN1; Ac4c = NC1(C(=O)O)CCC1; Cyclobutyl = C1CC(*)C1; X14 = c1cc(C*)cs1; Sar = CNCC(=O)O; Propyl = CCC*
# Target: protein-protein interaction between Kras and SOS1 (biotin-tagged human Kras loaded with GDP, His-tagged human SOS1) (Homo sapiens (Human), UniProt P01116, G12D)
# Assay: Protein-protein interaction inhibition between Kras and SOS1 (KrasG12D-SOS PPI) using AlphaScreen;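 also: kras produced in E. coli, Ni-coupled donor beads and streptavidin acceptor beads, excitation 680 nm with emission detected at 520–620 nm via singlet oxygen transfer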
# Type: biochemical
# Settings: AlphaScreen; biotin-tagged human Kras loaded with GDP, His-tagged human SOS1; read-out: KRAS G12D-SOS PPI IC50
row,Compound,IC50
1,CC[C@H](C)[C@@H]1NC(=O)[C@H](C)N(C)C(=O)C[C@@H](C(=O)N2CCCCC2)N(C)C(=O)[C@H](C(C)C)N(C)C(=O)C2(CCCC2)NC(=O)[C@@H]2CCCN2C(=O)[C@H](CCc2ccc(C)cc2)NC(=O)CN(C)C(=O)[C@H](CC2CCCCC2)N(C)C(=O)[C@@H]2CCN2C(=O)[C@H](C)N(C)C1=O [Compound 976] ([NMeA]I[NMeA][Aze][NMeCha][Sar][X83]P[Ac5c][NMeV][NMeD]-Piperidide; lactam N-11),180 nM
2,CC[C@H](C)[C@@H]1NC(=O)[C@H](CC(C)C)N(C)C(=O)C[C@@H](C(=O)N2CCCCC2)N(C)C(=O)[C@H]([C@@H](C)CC)N(C)C(=O)C2(CCCC2)NC(=O)[C@@H]2CCCN2C(=O)[C@H](CCc2ccc(C(F)(F)F)c(Cl)c2)NC(=O)CN(C)C(=O)[C@H](Cc2ccc(F)cc2)N(C)C(=O)[C@@H]2CCN2C(=O)[C@H](C)N(C)C1=O [Compound 1060] ([NMeL]I[NMeA][Aze][NMePhe(4-F)][Sar][hPhe(3-Cl-4-CF3)]P[Ac5c][NMeI][NMeD]-Piperidide; lactam N-11),0.65 nM
3,CC[C@H](C)[C@@H]1NC(=O)[C@H](CC(C)C)N(C)C(=O)C[C@@H](C(=O)N2CCCCC2)N(C)C(=O)[C@H](C2CCCCC2)N(C)C(=O)C2(CCCC2)NC(=O)[C@H](Cc2ccncc2)N(C)C(=O)[C@H](CCc2ccc(C(F)(F)F)c(Cl)c2)NC(=O)CN(C)C(=O)[C@H](CC2CCCCC2)N(C)C(=O)CN(C)C(=O)CN(C)C1=O [Compound 36] ([NMeL]I[Sar][Sar][NMeCha][Sar][hPhe(3-Cl-4-CF3)][NMe4Pal][Ac5c][NMeChg][NMeD]-Piperidide; lactam N-11),4.7 nM
4,CC[C@H](C)[C@@H]1NC(=O)[C@H](CC(C)C)N(C)C(=O)C[C@@H](C(=O)N2CCCCC2)N(C)C(=O)[C@H](C(C)C)N(C)C(=O)C2(CCCC2)NC(=O)[C@@H]2CCCN2C(=O)[C@H](CCc2ccc(C(F)(F)F)c(Cl)c2)NC(=O)CN(C)C(=O)[C@H](CC2CCCCC2)N(C)C(=O)[C@@H]2CCN2C(=O)[C@H](C)NC1=O [Compound 1334] ([NMeL]IA[Aze][NMeCha][Sar][hPhe(3-Cl-4-CF3)]P[Ac5c][NMeV][NMeD]-Piperidide; lactam N-11),3 nM
5,CC[C@H](C)[C@@H]1NC(=O)[C@H](CC(C)C)N(C)C(=O)C[C@@H](C(=O)N2CCCCC2)N(C)C(=O)[C@H](C(C)C)N(C)C(=O)C2(CCCC2)NC(=O)[C@@H]2CCCN2C(=O)[C@H](CCc2ccc(C(F)(F)F)c(Cl)c2)NC(=O)CN(C)C(=O)[C@H](Cc2ccc(C)cc2)N(C)C(=O)[C@@H]2CCN2C(=O)[C@H](C)N(C)C1=O [Compound 1828] ([NMeL]I[NMeA][Aze][NMePhe(4-Me)][Sar][hPhe(3-Cl-4-CF3)]P[Ac5c][NMeV][NMeD]-Piperidide; lactam N-11),2.7 nM
6,CC[C@H](C)[C@@H]1NC(=O)[C@H](CC(C)C)N(C)C(=O)C[C@@H](C(F)(F)F)NC(=O)[C@H]([C@@H](C)CC)N(C)C(=O)C2(CCCC2)NC(=O)[C@@H]2CCCN2C(=O)[C@H](CCc2ccc(C(F)(F)F)c(Cl)c2)NC(=O)CN(C)C(=O)[C@H](Cc2ccc(C)cc2)N(C)C(=O)[C@@H]2CCN2C(=O)[C@H](C)N(C)C1=O [Compound 1919] (cyclo([Ac5c][NMeI][X133][NMeL]I[NMeA][Aze][NMePhe(4-Me)][Sar][hPhe(3-Cl-4-CF3)]P)),210 nM
7,"CCCOC[C@H]1C(=O)N(C)CC(=O)N[C@@H](CCc2ccc(C(F)(F)F)c(F)c2)C(=O)N2CCC[C@H]2C(=O)NC2(CCCC2)C(=O)N(C)[C@@H]([C@@H](C)CC)C(=O)N(C)[C@H](C(=O)N2CCCC2)CC(=O)N(C)[C@@H](CC(C)C)C(=O)N[C@@H]([C@@H](C)CC)C(=O)N(C)[C@@H](C)C(=O)N2CC[C@H]2C(=O)N1C [Compound 684] ([NMeL]I[NMeA][Aze][NMeS](Propyl)[Sar][hPhe(3-F,4-CF3)]P[Ac5c][NMeI][NMeD]-Pyrrolidide; lactam N-11)",1.9 nM
8,CC[C@H](C)[C@@H]1NC(=O)[C@H](CC(C)C)N(C)C(=O)C[C@@H](C(=O)N2CCCCC2)N(C)C(=O)[C@H]([C@@H](C)CC)N(C)C(=O)C2(CCCC2)NC(=O)[C@@H]2CCCN2C(=O)[C@H](CCc2ccc(C(F)(F)F)c(Cl)c2)NC(=O)CN(C)C(=O)[C@H](COC2CCC2)N(C)C(=O)[C@@H]2CCN2C(=O)[C@H](C)N(C)C1=O [Compound 885] ([NMeL]I[NMeA][Aze][NMeS](Cyclobutyl)[Sar][hPhe(3-Cl-4-CF3)]P[Ac5c][NMeI][NMeD]-Piperidide; lactam N-11),1.9 nM
9,"CC[C@H](C)[C@@H]1NC(=O)[C@H](CC(C)C)N(C)C(=O)C[C@@H](C)N(C)C(=O)[C@H](C2CCCCC2)N(C)C(=O)C2(CCC2)NC(=O)[C@@H]2CC(F)(F)CN2C(=O)[C@H](CCc2ccc(C(F)(F)F)c(Cl)c2)NC(=O)CN(C)C(=O)[C@H](Cc2ccc(C(F)(F)F)cc2)N(C)C(=O)[C@@H]2CCN2C(=O)[C@H](C)N(C)C1=O [Compound 505] (cyclo([Ac4c][NMeChg][NMedβ3hAla][NMeL]I[NMeA][Aze][NMePhe(4-CF3)][Sar][hPhe(3-Cl-4-CF3)][Pro(4,4-F2)]))",86 nM
10,CC[C@H](C)[C@@H]1NC(=O)[C@H](CC(C)C)N(C)C(=O)C[C@@H](C(=O)N2CCCCC2)N(C)C(=O)[C@H](C2CCCCC2)N(C)C(=O)C2(CCCC2)NC(=O)[C@@H]2C[C@@H](OCc3ccsc3)CN2C(=O)[C@H](CCc2ccc(C(F)(F)F)c(Cl)c2)NC(=O)CN(C)C(=O)[C@H](CC2CCCCC2)N(C)C(=O)CN(C)C(=O)CN(C)C1=O [Compound 2124] ([NMeL]I[Sar][Sar][NMeCha][Sar][hPhe(3-Cl-4-CF3)][Hyp](X14)[Ac5c][NMeChg][NMeD]-Piperidide; lactam N-11),0.91 nM
11,CC[C@H](C)[C@@H]1NC(=O)[C@H](CC2CCCC2)N(C)C(=O)C[C@@H](C)NC(=O)[C@H](C(C)C)N(C)C(=O)C2(CCCC2)NC(=O)[C@@H]2CCCN2C(=O)[C@H](CCc2ccc(C(F)(F)F)c(Cl)c2)NC(=O)CN(C)C(=O)[C@H](CC2CCCCC2)N(C)C(=O)[C@@H]2CCN2C(=O)[C@H](C)N(C)C1=O [Compound 8] (cyclo([Ac5c][NMeV][d(β3hA)][NMeAla(cPent)]I[NMeA][Aze][NMeCha][Sar][hPhe(3-Cl-4-CF3)]P)),75 nM
12,"CC[C@H](C)[C@@H]1NC(=O)[C@H](CC(C)C)N(C)C(=O)C[C@@H](C(=O)N2CCOCC2)N(C)C(=O)[C@H]([C@@H](C)CC)N(C)C(=O)C2(CCCC2)NC(=O)[C@@H]2CCCN2C(=O)[C@H](CCc2ccc(C(F)(F)F)c(F)c2)NC(=O)CN(C)C(=O)[C@H](CC2CCCCC2)N(C)C(=O)[C@@H]2CCN2C(=O)[C@H](C)N(C)C1=O [Compound 790] ([NMeL]I[NMeA][Aze][NMeCha][Sar][hPhe(3-F,4-CF3)]P[Ac5c][NMeI][NMeD]-Morpholide; lactam N-11)",2.5 nM
13,CC[C@H](C)[C@@H]1NC(=O)[C@H](CC(C)C)N(C)C(=O)C[C@@H](C(=O)N2CC(F)(F)C(F)(F)C(F)(F)C2)NC(=O)[C@H]([C@@H](C)CC)N(C)C(=O)C2(CCCC2)NC(=O)[C@@H]2CCCN2C(=O)[C@H](CCc2ccc(C(F)(F)F)c(Cl)c2)NC(=O)CN(C)C(=O)[C@H](CC2CCCCC2)N(C)C(=O)CN(C)C(=O)CN(C)C1=O [Compound 1265] ([NMeL]I[Sar][Sar][NMeCha][Sar][hPhe(3-Cl-4-CF3)]P[Ac5c][NMeI]D-X17; lactam N-11),280 nM
